These results are taken from patent publication US20190388437A1, “COMPOSITIONS AND METHODS FOR TREATING BONE AND JOINT INFECTIONS” (priority 2014, published 2019).

By MIC90 is commonly meant the lowest concentration that inhibits either 90% of growth or 90% of the strains tested, depending on the study.

≈ marks a conversion by molar mass, not a printed value. Read-outs that look alike come from different tables or passages of the source. Bounds are passed on as bounds.

Data set [1] deals with S. aureus MRSA (Mec A genotype). Nature of the data set: Agar dilution MIC against resistant S. aureus. The data set is classed as cell-based. To be noted: Staphylococcus aureus. An excerpt:
The in vitro activity of CEM-102 was compared with that of telithromycin, azithromycin, erythromycin, levofloxacin, linezolid, and doxycycline against a total of 145 resistant S. aureus by agar dilution procedures (CLSI, M7-A7, M100-S18). The tested strains included S. aureus MRSA (Mec A genotype; 100 isolates), macrolide-resistant (ermA, B, C genotype or MLSb-resistant; 25), and ciprofloxacin-resistant (gyrA and parC genotype; 20).
Background: In agar dilution, organisms are placed on agar that contains the substance at set levels.

Data set [2] in a line: Dose escalation study, single and multiple doses: PK, safety, tolerability. The class given is in vivo, healthy adult subjects (human). On the procedure: Dose Escalation Study Using Single- and Multi-Dose FA. The pharmacokinetics (PK), safety, and tolerability of single and multiple doses of CEM-102 (sodium fusidate) were evaluated in a single-center, Phase 1, double-blind, randomized, placebo-controlled, dose-escalating study in 32 healthy adult subjects enrolled in 4 dosage groups (550, 1100, 1650, and 2200 mg). In each cohort, six subjects were to receive CEM-102 and two were to receive placebo in a single dose (Period 1) and then multiple doses BID for a total of 11 doses over 5.5 days (Period 2). The two dosing periods were separated by a seven-day washout period between the single dose in Period 1 and the first dose in Period 2.
Dosing proceeded as planned for Cohorts 1 to 3; however, Cohort 4 received only the single dose of 2200 mg (Period 1), because dose-limiting gastrointestinal intolerance was observed after multiple doses of 1650 mg BID in Cohort 3. Period 2 for Cohort 4 evaluated an initial loading dose regimen, and a second loading dose regimen was evaluated in an additional cohort (Cohort 5) per a protocol amendment.

Data set [3] concerns methicillin-resistant S. aureus (MRSA) strain USA 300. The class given is cell-based, Staphylococcus aureus. How it is done: Pharmacodynamics of CEM-102 against Methicillin-Resistant Staphylococcus aureus Using In vitro Models. A hollow fiber model was used to evaluate CEM-102 resistance potential in methicillin-resistant S. aureus (MRSA) strain USA 300 (Network of Antimicrobial Resistance in Staphylococcus aureus (MRSA), Chantilly, Va.). USA 300 is a highly virulent strain of MRSA and is the most common community-associated MRSA isolate in the USA. MIC values were determined in accordance with Clinical and Laboratory Standards Institute (CLSI).
The hollow fiber model comprised a two-compartment hollow fiber model (Louie et al. Antimicrob Agents Chemother 52:2486-2496(2008)) consisting of a volume of 15 mL in the central compartment, with multiple ports for the removal of broth, delivery of antibiotics, and collection of bacterial and antimicrobial samples. […] All experiments were performed in duplicate.
Hollow fibers contain 15 ml of media was prepared and inoculated with 10^6 colony forming units (CFU)/mL USA 300 bacteria. One of three different dosing regimens of […] was then applied to the fibers: (1) […] q12h; (2) 1200 mg/ml×2, followed by […], q12h; (3) 1500 mg/ml×2, followed by […], q12h.

Data set [4] relates to Group A beta hemolytic Streptococcus. The settings on record: cited from earlier work.
The subject of another data set is Staphylococcus. To be noted: cited from earlier work.
[5] abbreviates: Period 1 Day 1, single dose 1650 mg.

For `CC(=O)O[C@H]1C[C@@]2(C)[C@@H](C[C@@H](O)[C@H]3[C@@]4(C)CC[C@@H](O)[C@@H](C)[C@@H]4CC[C@@]32C)/C1=C(\CCC=C(C)C)C(=O)O` [FA, fusidic acid], in data set [1], the MIC90 amounted to 0.25 µg/mL (≈ 0.484 µM). Besides, in data set [2] (Period 1 Day 1, single dose 1100 mg), the “tmax, median” value is 3.50 h. In data set [2] (setting [5]), the “T1/2, harmonic mean” value stood at 13.9 h and the “tmax, median” value turned out to be 3.00 h. In addition, the “tmax, median” value in data set [2] (Period 2 Day 6, 1100 mg BID) was 4.00 h. In data set [2] (human, in vivo, 2200 mg), the “CL/F, mean” value is reported as 0.924 L/h. In data set [2] (in vivo), the “gastrointestinal AEs after single dose” value was “no gastrointestinal AEs were reported”, the “serious or life-threatening adverse events” value is “No serious or life-threatening adverse events (AEs) occurred” and the “tolerability of single doses” value is reported as “well tolerated”. Further, the outcome of treatment in data set [3] (600 mg q12h) was “regrowth and development of resistance by 24 h and 48 h”. Besides, in data set [3] (1200 mg×2 then 600 mg q12h), the “reduction of bacterial counts” value was roughly 2 logs and the time of rebound was determined as 72 h. For the same compound, in data set [3] (1500 mg×2 then 600 mg q12h), the killing entry is listed as “over 2.5 log”, the resistance suppressed until is listed as greater than 72 h and the time of rebound was found to be 144 h. In data set [4], the MIC90 is 4 to 8 µg/mL. In addition, the MICs in data set [4] (classified as moderately susceptible) is 4-16 micrograms per ml. In the data set on Staphylococcus, the “MIC in plasma protein” value is reported as no less than 2.5 micrograms per ml and the “increase of MIC in plasma protein” value was 8-10 fold.
